Test results reported in US20070161547A1, “Modulation of survivin expression” (priority 2003, published 2007).
pIC50: −log10 of the molar value. Where two headings read alike, the source gives them in different places.

How the values were obtained:
human survivin mRNA = experiment: IC50 of dsRNA for survivin mRNA, dose response by quantitative RT-PCR ("D"); format: cell-based; settings: D (dose response, mRNA levels), read-out: IC50
Experimental: Representative parameters that can be studied include, for example, translation of survivin mRNAs or survivin protein synthesis; effect on surrogate markers; or any other parameter that is indicative of potential dsRNA therapeutic effectiveness that can be conveniently measured in vitro.
(§1) For western blot analysis, cells are plated in 10 cm tissue culture dishes (Falcon, #3003) at a density of 7.5×10^5 cells/dish. For RT-PCR analysis, 96-well plates (Corning Incorporated, #3596) are plated with 1×10^4 cells/well. Lipofectin (GIBCO/Invitrogen) transfection reagent is used at a concentration of 3 ul/ml OPTIMEM reduced serum medium (Gibco/Invitrogen)/100 nM siRNA duplex. Lipofectin reagent is incubated with OPTIMEM medium for 30 minutes prior to the addition of siRNA. The desired amount of siRNA is added and mixed. Further 1:1 dilutions are performed in OPTIMEM. Cells are washed twice with 1× phosphate buffered saline and then treated with the siRNA/Lipofectin mixture in OPTIMEM. After a 4 hr incubation period, OPTIMEM medium is replaced with complete growth medium. Cells are harvested after additional 16-20 hrs for Western blot or RT-PCR analysis.
Total RNA is isolated using RNeasy® 96 kit according to recommended protocol (Qiagen). Briefly, cells are washed with 200 ul PBS after removal of growth medium. Following washing, 100 μl buffer RLT is added, plate is shaken vigorously for about 20 seconds. To each well 100 μl 70% ethanol are added and mixed by pipetting up and down three times. Samples are then applied into the wells of the RNeasy 96 plate placed in the QIAvac top base of the QIAvac 96 manifold, which is attached to a vacuum source. Vacuum is applied for 30 seconds or until transfer is complete. To each well 80 μl of DNase I incubation mix (20 mM Tris-HCl, pH 8.4, 2 mM MgCl2, 50 mM KCl and 225 Units/ml DNase I from Invitrogen) is added and incubated at room temperature for 30 minutes. Buffer RW1 (1 ml/well) is added and the vacuum is applied for 30 seconds. Buffer RPE (1 ml/well) is added to each well and vacuum is applied for 30 seconds. Washing steps with buffer RW1 and RPE1 are repeated once more. The plate is then removed from the manifold and blotted dry on paper towels. The plate is placed back in the QIAvac manifold and the vacuum is applied for 10 minutes. To elute RNA 30 μl of RNase-free water is added directly onto the membrane of each well, incubated for 1 minutes and vacuum is applied for 30 seconds. In order to maximize the recovery of total RNA the elution step is repeated with additional 30 μl/well RNase-free water.
Quantitation of survivin and GAPDH mRNA levels is determined by real-time quantitative RT-PCR using the ABI PRISM® 7900 Sequence Detection System (Applied Biosystems). RT-PCR reactions are carried out by adding 15 ul of TaqMan One Step PCR Master Mix (Applied Biosystems, #4309169) reagents (containing 100 nM each of forward primer and reverse primer, and 200 nM probe) to 96-well plates with 10 μl total RNA. For human survivin, the forward PCR primer is: 5′[…]3′ (SEQ ID NO: 186), and the reverse primer is: 5′[…]3′ (SEQ ID NO: 187). The survivin TaqMan® probe used is 5′(FAM)[…]3′ (SEQ ID NO: 188) (Biosearch Technologies, Inc.). This primer-probe set, designed to SEQ ID No 14 was used for all experiments in Examples 15 to the end. For human GAPDH, TaqMan GAPDH Control Reagent Kit is used (Applied Biosystems, #402869). The percentage inhibition for each samples are calculated by comparing the survivin/GAPDH mRNA ratio for the sample to survivin/GAPDH mRNA ratio for the untreated control. The IC50 is derived from the non-linear regression analysis of the percentage inhibition data using GraphPad Prism software (GraphPad Software).
The constructs tested comprise the antisense strand in the 5′-3′ orientation, and the sense strand in the 5′ to 3′ orientation, In Table 15, “D” is dose response (mRNA levels) and “W” is Western blot. […]

survivin protein = experiment: IC50 of dsRNA for survivin protein, quantitative Western blot ("W"); format: cell-based, human; settings: W (Western blot), HeLa cells
Experimental: Western blot analysis (immunoblot analysis) is carried out using standard methods. Cells are harvested 16-20 hours after oligonucleotide treatment, washed once with PBS, suspended in Laemmli buffer (100 μl/well), boiled for 5 minutes and loaded on a 16% SDS-PAGE gel. Gels are run for 1.5 hours at 150 V, and transferred to membrane for western blotting. Appropriate primary antibody directed to survivin is used, with a radiolabelled or fluorescently labeled secondary antibody directed against the primary antibody species. Bands are visualized using a PHOSPHORIMAGER™ (Molecular Dynamics, Sunnyvale, Calif.).
as §1
At the end of the incubation period culture medium is removed and cells are washed twice with PBS. Cells are lysed in RIPA buffer (20 mM Tris-HCl, pH 7.4, 5 mM EDTA, 50 mM NaCl, 10 mM Sodium Pyrophosphate, 50 mM Sodium Fluoride, and 1% Nonidet P40) plus Complete™ Mini protease inhibitor tablets (Roche, #1836153) and 1 mM Sodium orthovanadate (Sigma) by directly adding buffer to the plate. Lysates are collected by scrapping, transferred to microfuge tubes and cleared from the cellular debris by centrifugation at 14,000 rpm for 30 minutes at 4° C. Protein concentrations are determined using BCA protein assay yeagents (Pierce). Total cellular protein is subjected to SDS-PAGE and transferred onto Immobilon-P membranes (Millipore, #IPVHO91). Membranes are probed with primary antibodies to survivin (R&D Systems, #AF886) and to β-Actin (Sigma, #A5441). Horseradish peroxidase linked Anti-rabbit Ig, and anti-mouse Ig, antibodies (Pharmacia) are used as secondary antibodies. Antigen-antibody complexes are visualized by incubation of membrane in SuperSigmal West Pico chemiluminescence reagents (Pierce) for 5 minutes followed by capturing of the chemiluminescence using Fluor-S imager (Biorad) equipped with the cool CCD camera. The protein bands of interest for each sample are quantified using Quantity One software (Biorad). The percentage inhibition for each samples are calculated by comparing the survivin/Actin protein ratio for the sample to survivin/Actin protein ratio for the untreated control. The IC50 is derived from the non-linear regression analysis of the percentage inhibition data using GraphPad Prism software (GraphPad Software).
The constructs tested comprise the antisense strand in the 5′-3′ orientation, and the sense strand in the 5′ to 3′ orientation, In Table 15, “D” is dose response (mRNA levels) and “W” is Western blot. All internucleoside linkages are phosphodiester unless otherwise noted by a lowercase “s” indicating a phosphorothioate linkage.

With “339045_339075 (antisense AUCCAUGGCAGCCAGCUGCU; sense AGCAGCUGGCUGCCAUGGAU; siRNA; unmodified RNA)” the pIC50 (human survivin mRNA; HeLa cells) was 8.48, the pIC50 (human survivin mRNA; U-87 MG cells) was 9.17 and the pIC50 (survivin protein) was 8.26.

“339048_339078 (antisense AUUUGAAAAUGUUGAUCUCC; sense GGAGAUCAACAUUUUCAAAU; siRNA; unmodified RNA)” gave a pIC50 (human survivin mRNA; U-87 MG cells) of 9.47 and a pIC50 (survivin protein) of 8.40.

“339052_339082 (antisense GCAAAAGGGACACUGCCUUC; sense GAAGGCAGUGUCCCUUUUGC; siRNA; unmodified RNA)” gave a pIC50 (human survivin mRNA; HeLa cells) of 8.62, a pIC50 (human survivin mRNA; U-87 MG cells) of 8.94 and a pIC50 (survivin protein) of at most 7.00.

Substance “339056_339086 (antisense UAAGGAACCUGCAGCUCAGA; sense UCUGAGCUGCAGGUUCCUUA; siRNA; unmodified RNA)” has a pIC50 (human survivin mRNA; HeLa cells) of 8.76, a pIC50 (human survivin mRNA; U-87 MG cells) of 9.29 and a pIC50 (survivin protein) of 8.12.

Substance “339058_339088 (antisense AACAAAAUAAGAAAGCCAUG; sense CAUGGCUUUCUUAUUUUGUU; siRNA; unmodified RNA)” has a pIC50 (human survivin mRNA; HeLa cells) of 8.53 and a pIC50 (survivin protein) of 8.14.

In the case of “339060_339090 (antisense AGUUUGUGCUAUUCUGUGAA; sense UUCACAGAAUAGCACAAACU; siRNA; unmodified RNA)”, the pIC50 (human survivin mRNA; HeLa cells) was 8.47 and the pIC50 (survivin protein) was 8.35.
